Experiments:
[1] = Metabolic stability in mouse liver microsomes assessed as half life; assay type: ADME, Microsome
[2] = Stability in mouse plasma assessed as half life; assay type: ADME, cell-free
[3] = target: Histone deacetylase 1 (Homo sapiens, UniProt Q13547); assay: Inhibition of human full-length recombinant HDAC1 incubated for 2 hrs by fluorescence based analysis
[4] = target: T1, Protein deacetylase HDAC6 (Homo sapiens, UniProt Q9UBN7); assay: Inhibition of human full-length recombinant HDAC6 incubated for 2 hrs by fluorescence based analysis
T1 sequence (Q9UBN7 whole entry): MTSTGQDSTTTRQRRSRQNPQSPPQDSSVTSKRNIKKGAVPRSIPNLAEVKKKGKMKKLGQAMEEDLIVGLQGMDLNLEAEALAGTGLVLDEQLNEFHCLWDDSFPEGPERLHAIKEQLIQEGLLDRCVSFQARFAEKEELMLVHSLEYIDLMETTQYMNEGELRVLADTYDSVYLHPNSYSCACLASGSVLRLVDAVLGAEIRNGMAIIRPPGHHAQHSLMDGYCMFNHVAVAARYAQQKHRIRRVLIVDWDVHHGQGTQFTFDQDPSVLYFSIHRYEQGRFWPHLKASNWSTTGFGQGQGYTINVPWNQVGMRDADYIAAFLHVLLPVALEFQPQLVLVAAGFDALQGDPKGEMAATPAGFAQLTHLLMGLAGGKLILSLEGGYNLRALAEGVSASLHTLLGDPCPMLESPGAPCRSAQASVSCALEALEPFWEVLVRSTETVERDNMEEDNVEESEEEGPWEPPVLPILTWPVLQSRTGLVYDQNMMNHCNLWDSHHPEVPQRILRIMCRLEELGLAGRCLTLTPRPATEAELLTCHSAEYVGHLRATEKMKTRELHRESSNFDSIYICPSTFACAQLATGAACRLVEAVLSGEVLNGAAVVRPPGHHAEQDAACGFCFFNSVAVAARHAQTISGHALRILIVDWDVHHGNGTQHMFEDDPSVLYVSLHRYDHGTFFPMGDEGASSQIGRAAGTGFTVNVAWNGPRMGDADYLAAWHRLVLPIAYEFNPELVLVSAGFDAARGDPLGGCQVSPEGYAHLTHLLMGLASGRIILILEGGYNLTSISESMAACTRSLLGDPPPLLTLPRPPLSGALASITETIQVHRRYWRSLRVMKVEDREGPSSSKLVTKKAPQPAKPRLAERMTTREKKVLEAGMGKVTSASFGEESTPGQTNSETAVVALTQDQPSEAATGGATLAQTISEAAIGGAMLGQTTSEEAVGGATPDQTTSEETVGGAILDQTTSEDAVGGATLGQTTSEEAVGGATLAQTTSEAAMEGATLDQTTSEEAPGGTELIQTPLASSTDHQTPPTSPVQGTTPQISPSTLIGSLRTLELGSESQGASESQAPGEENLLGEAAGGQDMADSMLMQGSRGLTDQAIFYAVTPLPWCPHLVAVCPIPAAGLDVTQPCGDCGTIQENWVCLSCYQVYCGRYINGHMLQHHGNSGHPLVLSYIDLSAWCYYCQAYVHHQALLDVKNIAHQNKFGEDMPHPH

[5] = target: Histone deacetylase; assay type: cell-based, Homo sapiens; settings: hela
[6] = target: T2, Histone deacetylase 8 (Homo sapiens, UniProt Q9BY41); assay: Inhibition of human recombinant HDAC8
T2 sequence (Q9BY41 whole entry): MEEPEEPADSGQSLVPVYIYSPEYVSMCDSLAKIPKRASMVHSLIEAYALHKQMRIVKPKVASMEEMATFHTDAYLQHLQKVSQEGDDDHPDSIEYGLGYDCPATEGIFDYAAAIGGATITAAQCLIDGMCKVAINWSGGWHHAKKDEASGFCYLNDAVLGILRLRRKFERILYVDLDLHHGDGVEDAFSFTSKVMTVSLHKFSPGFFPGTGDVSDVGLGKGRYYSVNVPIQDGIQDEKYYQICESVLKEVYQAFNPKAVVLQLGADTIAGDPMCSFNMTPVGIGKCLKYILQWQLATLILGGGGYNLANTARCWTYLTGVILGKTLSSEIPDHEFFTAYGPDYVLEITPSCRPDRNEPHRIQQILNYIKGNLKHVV

[7] = tested on: A2780; assay: Antiproliferative activity against human A2780 cells assessed as cell growth inhibition; assay type: functional, cell-based
[8] = tested on: K562; assay: Antiproliferative activity against human K562 cells assessed as inhibition of cell growth by MTT assay; assay type: functional, cell-based
[9] = tested on: MCF7; assay: Antiproliferative activity against human MCF7 cells assessed as inhibition of cell growth by MTT assay; assay type: functional, cell-based
[10] = tested on: HeLa; assay: Antiproliferative activity against human HeLa cells assessed as inhibition of cell growth by MTT assay; assay type: functional, cell-based
[11] = tested on: HEK-293T; assay: Antiproliferative activity against HEK293T cells assessed as inhibition of cell growth by MTT assay; assay type: functional, cell-based; settings: Homo sapiens

Histone deacetylase 1, sequence (Q13547 whole entry): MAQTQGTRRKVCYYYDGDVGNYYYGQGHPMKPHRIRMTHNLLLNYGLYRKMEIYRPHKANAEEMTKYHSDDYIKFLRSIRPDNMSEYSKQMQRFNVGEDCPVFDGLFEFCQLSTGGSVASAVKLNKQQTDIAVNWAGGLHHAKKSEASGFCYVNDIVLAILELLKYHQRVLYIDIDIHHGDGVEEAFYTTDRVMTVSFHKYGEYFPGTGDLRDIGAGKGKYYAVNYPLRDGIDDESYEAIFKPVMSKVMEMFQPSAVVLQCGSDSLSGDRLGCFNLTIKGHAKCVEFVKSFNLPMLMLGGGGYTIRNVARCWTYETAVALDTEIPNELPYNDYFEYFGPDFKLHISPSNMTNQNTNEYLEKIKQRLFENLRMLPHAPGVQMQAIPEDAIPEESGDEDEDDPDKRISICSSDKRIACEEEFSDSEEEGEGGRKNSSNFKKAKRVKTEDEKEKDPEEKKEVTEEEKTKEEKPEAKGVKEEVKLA

Q: With Nc1ccccc1NC(=O)CCCCCCC(=O)Nc1ccccc1 as the molecule, how does the half-life [1] read?
A: 1.9 h

Q: What about the half-life [2] of the same molecule?
A: 1.9 h

Q: Which results are given for Cc1onc(-c2ccccc2)c1C(=O)NCCCCCCC(=O)NO?
A: IC50 [3]: 3 µM; IC50 [4]: 0.18 µM

Q: Which IC50 [5] does the source give for CP(=O)([O-])CCCCCCC(=O)Nc1ccccc1.[Li+] here?
A: 8200 µM

Q: What about the IC50 [6] of the same molecule?
A: 390 µM

Q: What about the IC50 [7] of the same molecule?
A: 110 µM

Q: For O=C(CCCCCSc1nc[nH]n1)Nc1ccccc1, which IC50 [8] is on record?
A: 11.1 µM

Q: And the IC50 [5]?
A: 8.1 µM

Q: What about the IC50 [9] of the same molecule?
A: 11.1 µM

Q: What about the IC50 [10] of the same molecule?
A: 11.1 µM

Q: And the IC50 [11]?
A: 11.1 µM
